Measurements: US20140328940A1, “MODULATION OF AXON DEGENERATION” (Genentech, Inc., priority 2009, published 2014)

Columns and labels:
[1] = system: cortical neurons; assay: vincristine challenge of cortical neurons, LDH assay; format: cell-based, rat; conditions: 20 hour vincristine (300 nM)
Method: (§1) Cortical neurons were isolated using the following procedure. Rat E18 cortices devoid of meninges were dissected into ice-cold neurobasal media (Invitrogen). Cortices were dissociated in a final concentration of 0.1% trypsin/PBS (Worthington) for 30 minutes at 37° C. A final concentration of 0.1% RNase (Roche) was added to the tube and tissue was incubated at room temperature for 1 minute. Tissue was washed once with warm neurobasal media and the tissue was allowed to settle in the tube before 1 mL of neurobasal media containing 2% B27 supplement (Invitrogen) was added. Tissue was dissociated by trituration with a P1000 pipet (Rainin). The cells were counted and, for some experiments, transfected with siRNAs using a Biosystem 96-well nucleofector (Amaxa).
(§2) Cells were plated in 6- or 8-well chambers or 96-well poly-D-lysine coated dishes (BD Biosciences) at plated cell densities of 2×10^6 cells/well, 1.25-2×10^5 cells/well, or 1×10^4 cells/well, respectively, for siRNA experiments (densities that allow for some cell death normally associated with the electroporation process). […] Gene silencing was assayed 3-4 days after plating by quantitative reverse transcriptase polymerase chain reaction (qRT-PCR). […] Each reaction containing 10 ng of RNA was run in triplicate using the Quantifect SYBR Green RT-PCR kit (Qiagen) with DLK-, JNK1-, JNK2-, or JNK3-specific primers. […]

[2] = toxin-induced degeneration of sympathetic neurons (MTT assay); format: cell-based; conditions: Sprague-Dawley, rat, primary sympathetic neurons from cervical ganglia, 24 hour vincristine, read-out: % viability (normalized)
Method: Sympathetic cervical ganglia were dissected from postnatal day 1 Sprague-Dawley rats (Charles River Labs) and collected in a dish containing Ultraculture media (Lonza) with 5% fetal bovine serum (Invitrogen). Ganglia were washed twice with serum-free Ultraculture media, and a final concentration of 0.1% trypsin (Worthington) was added and incubated with the tissue at 37° C. for 30 minutes. One percent DNase (Roche) solution in PBS was added to the ganglia and incubated at room temperature for 1-2 minutes. Ganglia were washed with Ultraculture and allowed to settle to the bottom of the tube. All wash media were removed and 1 mL plating media containing Ultraculture, 5% rat serum, 1% penicillin-streptomycin, 1% glutamax, 7 μM cytosine arabinoside (Sigma), and 50 ng/mL nerve growth factor (2.5S, Cedarlane Laboratory) was added to the tube. Ganglia were dissociated by trituration using a pipet (Rainin). The cell slurry was filtered over a […] cell strainer (Falcon) and cell number was counted. Sympathetic neurons were plated at a density of 5000-7500 cells/well (96-well dish), 200,000 cells/well (6-well plate), or 100,000 cells/well (8-well chamber slide) and grown for 4-5 days in 5% CO2 at 37° C. Every other day neurons were fed with fresh plating media containing 5-10 ng/mL NGF.
NGF withdrawal assays were performed as described in Example 14A. […]

[3] = vincristine challenge of cortical neurons, viability assay; format: cell-based; conditions: rat, primary E18 cortical neurons; 12 hour vincristine (300 nM); read-out: % Viability (normalized)
Method: as §1, §2

With CC[C@]1(O)C[C@H]2CN(CCc3c([nH]c4ccccc34)[C@@](C(=O)OC)(c3cc4c(cc3OC)N(C=O)[C@H]3[C@@](O)(C(=O)OC)[C@H](OC(C)=O)[C@]5(CC)C=CCN6CC[C@]43[C@@H]65)C2)C1 [vincristine] the “% cell death (normalized)” value [1] was 100%, the viability at 24 h [2] was 28% and the viability at 12 h, 0.3 µM [3] was 77%.
